Results taken from patent publication US20220022457A1, “Microbicide Ammonium-Imidazolium Oligomers and Their Anti-Fungal Compositions” (AGENCY FOR SCIENCE, TECHNOLOGY AND RESEARCH, priority 2018, published 2022).
Values after ≈ are worked out from the molar mass of the structure shown. Values joined by “and” are separate entries in the source; they are usually repeats but may differ in a detail not shown here. Equal values may be shown once.

Legend:
[1] = Critical micelle concentration; assay type: physicochemical
C. albicans = assay: Checkerboard assay of oligomers with triazoles (FIC); assay type: cell-based; details: Candida albicans; for FIC with Fluconazole: calculated from lowest concentration inhibiting at least 50% growth
Protocol: […]. […] A row and a column in which a serial dilution of each agent was present alone were also prepared for MIC test. Then each solution in the well plate was inoculated with 100 μL of logarithmically grown 10^6 cells/ml C. albicans cells in the 96-well plate. The plate also contained a column with C. albicans only as control (100% cell growth). The cells were incubated at room temperature for 24 h with constant shaking, after which cell growth (i.e. the O.D. at 600 nm) was monitored with a microplate reader (TECAN) Synergy between fluconazole and oligomers was determined by calculating the fractional inhibitory concentration index ([…] was calculated as follows: FIC=(MIColigomer A in combination/MIColigomer A alone)+(MICazole B in combination/MICazole B alone). […] The interaction of selected oligomers with other triazoles such as itraconazole and voriconazole was also investigated using the checkerboard dilution method. For comparison, the interaction of the selected oligomer with a non-triazole antifungal agent […] was also investigated.

[2] = test system: Candida albicans (ATCC 10231, fungus); assay: Minimum inhibitory concentration, microdilution assay; assay type: cell-based; details: for MIC50 C.A. (value in brackets): Candida albicans, concentration inhibiting 50% fungal growth
Protocol: Staphylococcus aureus (ATCC 6538, Gram-positive), Escherichia coli (ATCC 8739, Gram-negative), Pseudomonas aeruginosa (ATCC 9027, Gram-negative), and Candida albicans (ATCC 10231, fungus) were used as representative microorganisms to challenge the antimicrobial functions of the oligomers. All bacteria and fungus were frozen at -80° C., and were grown overnight at 37° C. in Mueller Hinton Broth (MHB, BD Singapore) prior to experiments. Fungus was grown overnight at 22° C. in Yeast Mold Broth (YMB, BD Singapore). […] […] […] Medium solution containing microbial cells alone were used as control (100% microbial growth). The assay was performed in four replicates and the experiments were repeated at least two times.

[3] = test system: Escherichia coli (ATCC 8739, Gram-negative); assay: as above; assay type: cell-based; details: 24 h, lowest concentration with no visible growth
Protocol: (§1) Staphylococcus aureus (ATCC 6538, Gram-positive), Escherichia coli (ATCC 8739, Gram-negative), Pseudomonas aeruginosa (ATCC 9027, Gram-negative), and Candida albicans (ATCC 10231, fungus) were used as representative microorganisms to challenge the antimicrobial functions of the oligomers. All bacteria and fungus were frozen at -80° C., and were grown overnight at 37° C. in Mueller Hinton Broth (MHB, BD Singapore) prior to experiments. Fungus was grown overnight at 22° C. in Yeast Mold Broth (YMB, BD Singapore). […] The plates were incubated at 37° C. for 24 h with constant shaking speed at 300 rpm. […] Medium solution containing microbial cells alone were used as control (100% microbial growth). The assay was performed in four replicates and the experiments were repeated at least two times.

[4] = test system: Staphylococcus aureus (ATCC 6538, Gram-positive); assay: as above; assay type: cell-based; details: 24 h, lowest concentration with no visible growth
Protocol: as §1

[5] = test system: Pseudomonas aeruginosa (ATCC 9027, Gram-negative); assay: as above; assay type: cell-based; details: 24 h, lowest concentration with no visible growth
Protocol: as §1

[6] = test system: mouse red blood cells (RBCs); assay: Hemolysis study; assay type: cell-based; details: oligomer concentration giving 10% hemolysis, 1 h, 37° C.
Protocol: After 1 h incubation at 37° C., the mixture was centrifuged at 2000 rpm for 5 min. Aliquots (100 μl) of the supernatant were transferred to a 96-well plate. Hemolytic activity was determined as a function of hemoglobin release by measuring absorbance of the supernatant at 576 nm using a microplate reader. A control solution that contained only PBS was used as a reference for 0% hemolysis. Absorbance of red blood cells lysed with 0.5% Triton-X was taken as 100% hemolysis. The oligomer concentration which results in 10% hemolysis is indicated as HC10 in Table 1. The data were expressed as mean and S.D. of four replicates. % Hemolysis=[OD576 nm (polymer)−OD576 nm (PBS)]/[OD576 nm (Triton-X)−OD576 nm (PBS)]×100%

[7] = Candida albicans ~10^6 CFU/ml, YMB, room temperature, no visible growth
[8] = triazole in combination with IDPBX8
[9] = triazole in combination with IDPPX8

Molecule | CMC [1] | MIC C.A. [2, 7] | MIC50 C.A. (value in brackets) [2] | MIC E.C. [3] | MIC S.A. [4] | MIC P.A. [5] | Alone MIC50 component A (C. albicans; oligomer alone) | Combined MIC50 component A (C. albicans; oligomer in combination with Fluconazole) | MIC ([2]; ATCC10231, Candida albicans ~10^6 CFU/ml, YMB, room temperature, no visible growth) | FIC with Fluconazole (C. albicans) | HC10 [6] | FIC (C. albicans; oligomer with Fluconazole (Table 2)) | Alone MIC50 component B (C. albicans; triazole alone) | Combined MIC50 component B (C. albicans; [8]) | Combined MIC50 component B (C. albicans; [9])
CCCCCCCC[n+]1ccn(Cc2ccc(Cn3cc[n+](C/C=C/C[N+]45CC[N+](C/C=C/C[n+]6ccn(Cc7ccc(Cn8cc[n+](CCCCCCCC)c8)cc7)c6)(CC4)CC5)c3)cc2)c1.[Br-].[Br-].[Br-].[Br-].[Br-].[Br-] [IIDPBX8] | 291 µg/mL | 62 µg/mL | (8) μg/ml | 62 µg/mL | 4 µg/mL | 250 µg/mL |  |  |  | 0.31 | >2000 µg/mL |  |  |  | 
itraconazole [reference compound] |  | 0.016 to 0.03 µg/mL |  |  |  |  |  |  |  |  |  |  | 0.016 µg/mL and 0.03 µg/mL | 0.015 µg/mL | 0.004 µg/mL
C[C@@H](c1ncncc1F)[C@](O)(Cn1cncn1)c1ccc(F)cc1F [Voriconazole, voriconazole, reference compound] |  |  |  |  |  |  |  |  | 0.025 to 0.1 µg/mL (≈ 0.0716 to 0.286 µM) |  |  |  |  | 0.006 µg/mL | 0.003 µg/mL
c1ccc(Cn2cc[n+](Cc3ccc(C[N+]45CC[N+](Cc6ccc(C[N+]78CC[N+](Cc9ccc(C[n+]%10ccn(Cc%11ccccc%11)c%10)cc9)(CC7)CC8)cc6)(CC4)CC5)cc3)c2)cc1 [IDPPXb] | 1860 µg/mL | 2000 µg/mL | (500) μg/ml | 62 µg/mL | 125 µg/mL | >1000 µg/mL |  |  |  | 0.5 |  |  |  |  | 

Now from value to molecule, other results behind:

CMC [1] | MIC C.A. [2, 7] | MIC50 C.A. (value in brackets) [2] | MIC E.C. [3] | MIC S.A. [4] | MIC P.A. [5] | Alone MIC50 component A (C. albicans; oligomer alone) | Combined MIC50 component A (C. albicans; oligomer in combination with Fluconazole) | MIC ([2]; ATCC10231, Candida albicans ~10^6 CFU/ml, YMB, room temperature, no visible growth) | Molecule | FIC with Fluconazole (C. albicans) | HC10 [6] | FIC (C. albicans; oligomer with Fluconazole (Table 2)) | Alone MIC50 component B (C. albicans; triazole alone) | Combined MIC50 component B (C. albicans; [8]) | Combined MIC50 component B (C. albicans; [9])
1896 µg/mL | 500 µg/mL | (31) μg/ml | 16 µg/mL | 16 µg/mL | 2000 µg/mL |  |  |  | CCCCCCCC[N+]12CC[N+](Cc3ccc(C[N+]45CC[N+](CCCCCCCC)(CC4)CC5)cc3)(CC1)CC2.[Br-].[Br-].[Br-].[Br-] [DDP8] | 0.19 | >2000 µg/mL |  |  |  | 
3038 µg/mL | 125 µg/mL | (16) μg/ml | 8 µg/mL | 4 µg/mL | 62 µg/mL |  |  |  | CCCCCCCC[N+]12CC[N+](Cc3ccccc3C[N+]34CC[N+](CCCCCCCC)(CC3)CC4)(CC1)CC2.[Br-].[Br-].[Br-].[Br-] [DDO8] | 0.38 | >2000 µg/mL |  |  |  | 
727 µg/mL | 31 µg/mL | (2-8) μg/ml | 31 µg/mL | 8 µg/mL | 125 µg/mL | 2 µg/mL | 1 µg/mL |  | CCCCCCCC[n+]1ccn(Cc2ccc(Cn3cc[n+](Cc4ccc(C[N+]56CC[N+](C/C=C/C[N+]78CC[N+](Cc9ccc(C[n+]%10ccn(Cc%11ccc(Cn%12cc[n+](CCCCCCCC)c%12)cc%11)c%10)cc9)(CC7)CC8)(CC5)CC6)cc4)c3)cc2)c1.[Br-].[Br-].[Br-].[Br-].[Br-].[Br-].[Br-].[Br-] [IIDPPBX8] | 1.00 | >2000 µg/mL | 1.0 |  |  | 
1732 µg/mL | >1000 µg/mL | (1000) μg/ml | 62 µg/mL | 125 µg/mL | >1000 µg/mL |  |  |  | C(=C\C[N+]12CC[N+](Cc3ccc(C[n+]4ccn(Cc5ccccc5)c4)cc3)(CC1)CC2)/C[N+]12CC[N+](Cc3ccc(C[n+]4ccn(Cc5ccccc5)c4)cc3)(CC1)CC2 [IDPBXb] |  | >2000 µg/mL |  |  |  | 
1829 µg/mL | >500 µg/mL | (32) μg/ml | 16 µg/mL | 8 µg/mL | 500 µg/mL |  |  |  | CCCCCCCC[n+]1ccn(CC=CC[N+]23CC[N+](CC=CCn4cc[n+](CCCCCCCC)c4)(CC2)CC3)c1.[Br-].[Br-].[Br-].[Br-] [IDIB8] | 0.25 | >2000 µg/mL |  |  |  | 
